Test results reported in article PMC7421780 (Future Medicinal Chemistry, 2020).
Read-outs that look alike come from different tables or passages of the source.

Tests used:
[1] = Human plasma, equilibrium dialysis
[2] = test system: Mtb H37Rv; test: Secondary assay: MIC, IC50 and IC90 repeated at lower starting concentrations; assay type: cell-based; conditions: Mycobacterium tuberculosis; for MIC: read-out: MIC aerobic condition
[3] = in vitro; conditions: human
[4] = target: CYP2C19 (Homo sapiens, UniProt P33261); test: biochemical
[5] = test system: Mtb H37Rv; test: Primary screen: MIC, IC50 and IC90 under aerobic conditions; assay type: cell-based; conditions: Mycobacterium tuberculosis
[6] = test system: intracellular Mtb H37Rv; test: microbe, parasite or virus in culture; assay type: cell-based; conditions: Mycobacterium tuberculosis; for IC50: THP-1, read-out: IC50 intracell; for IC90: THP-1, read-out: IC90 intracell
[7] = test system: NRP Mtb H37Rv; test: microbe, parasite or virus in culture; assay type: cell-based; conditions: Mycobacterium tuberculosis
[8] = test system: Mycobacterium avium; test: MIC against nontuberculous mycobacteria, Alamar blue; assay type: cell-based
[9] = Caco-2 cell monolayer permeability assay; conditions: human, Caco-2
[10] = target: T1, CYP2B6 (Homo sapiens, UniProt P20813); test: biochemical
T1 sequence (P20813 1-491): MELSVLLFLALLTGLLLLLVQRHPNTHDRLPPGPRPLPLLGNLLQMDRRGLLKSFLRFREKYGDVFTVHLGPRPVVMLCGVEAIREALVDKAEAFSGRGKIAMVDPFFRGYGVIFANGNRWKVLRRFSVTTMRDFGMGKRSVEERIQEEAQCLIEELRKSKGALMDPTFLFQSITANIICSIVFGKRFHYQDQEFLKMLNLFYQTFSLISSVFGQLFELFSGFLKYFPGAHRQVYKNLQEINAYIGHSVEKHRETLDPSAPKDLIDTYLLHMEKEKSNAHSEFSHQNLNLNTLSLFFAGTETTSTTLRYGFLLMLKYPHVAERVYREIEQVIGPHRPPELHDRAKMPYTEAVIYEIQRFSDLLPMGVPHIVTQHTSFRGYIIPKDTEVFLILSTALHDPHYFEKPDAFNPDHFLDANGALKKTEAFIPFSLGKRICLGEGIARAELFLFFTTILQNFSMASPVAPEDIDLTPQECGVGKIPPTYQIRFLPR

[11] = HepG2 cytotoxicity; assay type: cell-based; conditions: human, HepG2 cells
[12] = target: T2, CYP2C8 (Homo sapiens, UniProt P10632); test: biochemical
T2 sequence (P10632 1-490): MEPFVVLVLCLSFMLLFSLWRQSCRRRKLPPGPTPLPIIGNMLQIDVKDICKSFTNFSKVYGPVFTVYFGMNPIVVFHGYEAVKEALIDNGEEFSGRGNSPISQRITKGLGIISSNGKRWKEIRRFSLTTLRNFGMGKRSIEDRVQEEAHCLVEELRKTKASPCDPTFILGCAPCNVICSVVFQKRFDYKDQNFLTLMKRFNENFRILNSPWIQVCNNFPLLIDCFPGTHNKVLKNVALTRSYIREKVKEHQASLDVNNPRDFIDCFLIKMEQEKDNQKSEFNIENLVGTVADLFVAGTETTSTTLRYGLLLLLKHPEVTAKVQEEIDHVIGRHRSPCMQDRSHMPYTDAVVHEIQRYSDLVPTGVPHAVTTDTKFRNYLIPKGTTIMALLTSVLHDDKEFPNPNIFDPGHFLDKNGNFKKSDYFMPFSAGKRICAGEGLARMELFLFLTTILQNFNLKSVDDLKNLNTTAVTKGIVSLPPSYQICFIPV

[13] = In vitro microsomal stability assay; conditions: human, microsomes
[14] = target: CYP3A4 (Homo sapiens, UniProt P08684); test: Cytochrome P450 inhibition; assay type: in vitro ADME
[15] = test system: Mycobacterium abscessus; test: MIC, IC50, IC90 against nontuberculous mycobacteria; assay type: cell-based
[16] = in vitro; conditions: human; remark: listed apart in the source
[17] = test system: Mtb H37Rv; test: Minimal bactericidal concentration; assay type: cell-based, Mycobacterium tuberculosis; conditions: Mtb H37Rv aerobic
[18] = target: CYP2D6 (Homo sapiens, UniProt P10635); test: biochemical
[19] = target: CYP2C9 (Homo sapiens, UniProt P11712); test: Cytochrome P450 inhibition; assay type: in vitro ADME
[20] = physchem; conditions: aqueous with cosolvent or surfactant or cyclodextrin, kinetic from dmso stock

Chain of CYP3A4 (P08684 whole entry): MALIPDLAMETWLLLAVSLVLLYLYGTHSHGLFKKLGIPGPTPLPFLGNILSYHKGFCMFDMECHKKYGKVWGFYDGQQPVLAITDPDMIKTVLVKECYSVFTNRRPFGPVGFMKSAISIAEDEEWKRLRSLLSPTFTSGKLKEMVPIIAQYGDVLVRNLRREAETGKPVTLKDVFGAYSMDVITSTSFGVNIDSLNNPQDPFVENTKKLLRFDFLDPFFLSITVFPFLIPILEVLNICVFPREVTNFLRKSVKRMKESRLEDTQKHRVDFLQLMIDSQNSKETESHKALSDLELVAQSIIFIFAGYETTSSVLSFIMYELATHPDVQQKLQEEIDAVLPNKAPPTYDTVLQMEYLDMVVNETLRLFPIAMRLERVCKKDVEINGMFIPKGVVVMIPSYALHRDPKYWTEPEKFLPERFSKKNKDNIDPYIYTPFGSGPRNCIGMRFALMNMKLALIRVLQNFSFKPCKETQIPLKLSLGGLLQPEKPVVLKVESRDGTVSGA
Chain of CYP2C19 (P33261 whole entry): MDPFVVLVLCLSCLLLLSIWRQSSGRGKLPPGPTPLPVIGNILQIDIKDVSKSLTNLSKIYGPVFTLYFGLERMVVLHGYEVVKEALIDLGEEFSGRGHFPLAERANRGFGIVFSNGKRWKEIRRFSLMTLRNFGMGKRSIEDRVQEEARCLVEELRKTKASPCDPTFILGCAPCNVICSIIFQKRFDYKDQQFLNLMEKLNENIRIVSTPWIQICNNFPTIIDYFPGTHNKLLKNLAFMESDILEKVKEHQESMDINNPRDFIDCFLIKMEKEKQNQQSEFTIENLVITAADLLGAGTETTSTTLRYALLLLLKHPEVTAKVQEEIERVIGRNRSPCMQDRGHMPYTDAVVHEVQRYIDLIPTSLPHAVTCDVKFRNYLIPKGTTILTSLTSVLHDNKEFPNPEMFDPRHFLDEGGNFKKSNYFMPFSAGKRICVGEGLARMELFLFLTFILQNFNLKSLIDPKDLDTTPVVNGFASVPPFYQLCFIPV
Chain of CYP2D6 (P10635 whole entry): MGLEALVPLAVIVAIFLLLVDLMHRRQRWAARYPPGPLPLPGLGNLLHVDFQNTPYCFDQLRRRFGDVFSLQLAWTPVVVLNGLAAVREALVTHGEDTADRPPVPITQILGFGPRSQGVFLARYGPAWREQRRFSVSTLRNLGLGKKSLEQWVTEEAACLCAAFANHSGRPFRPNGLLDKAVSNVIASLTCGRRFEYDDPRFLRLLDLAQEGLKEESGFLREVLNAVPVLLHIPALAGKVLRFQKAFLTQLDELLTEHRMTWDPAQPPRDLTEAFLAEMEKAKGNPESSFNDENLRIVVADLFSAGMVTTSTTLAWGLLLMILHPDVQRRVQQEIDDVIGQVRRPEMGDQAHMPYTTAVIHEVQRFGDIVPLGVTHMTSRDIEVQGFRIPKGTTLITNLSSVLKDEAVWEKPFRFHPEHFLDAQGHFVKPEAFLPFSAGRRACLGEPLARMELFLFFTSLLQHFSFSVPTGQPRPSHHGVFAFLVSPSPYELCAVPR
Chain of CYP2C9 (P11712 whole entry): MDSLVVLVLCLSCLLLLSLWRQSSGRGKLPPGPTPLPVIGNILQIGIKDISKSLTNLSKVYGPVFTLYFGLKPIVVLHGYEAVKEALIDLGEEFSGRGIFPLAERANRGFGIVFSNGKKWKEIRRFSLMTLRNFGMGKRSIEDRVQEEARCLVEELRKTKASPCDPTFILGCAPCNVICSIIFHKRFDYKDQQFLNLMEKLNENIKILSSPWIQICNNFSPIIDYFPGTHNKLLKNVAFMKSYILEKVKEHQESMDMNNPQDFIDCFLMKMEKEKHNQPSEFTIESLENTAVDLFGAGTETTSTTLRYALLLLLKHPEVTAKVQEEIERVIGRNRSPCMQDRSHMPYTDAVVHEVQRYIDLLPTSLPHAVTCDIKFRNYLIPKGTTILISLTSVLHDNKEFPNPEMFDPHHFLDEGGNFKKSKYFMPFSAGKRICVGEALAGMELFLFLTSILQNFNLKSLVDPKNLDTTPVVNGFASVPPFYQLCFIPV

## O=C(C[n+]1cn(Cc2cccc(Cn3c[n+](CC(=O)c4ccc([N+](=O)[O-])cc4)c4ccccc43)n2)c2ccccc21)c1ccc([N+](=O)[O-])cc1.[Br-].[Br-] [Compound 6f, 1,1′-(pyridine-2,6-diylbis(methylene))bis(3-(2-(4-nitrophenyl)-2-oxoethyl)-1H-benzo[d]imidazol-3-ium) bromide]
[1]
  Mean plasma fraction unbound: 7.8%
[2]
  IC50: 11 µM
  IC90: 20 µM
  MIC: 16 µM
[3]
  IC50: > 50 µM
[4]
  IC50: 8.8 µM
[5]
  IC50: 14 µM
  IC90: 21 µM
  MIC: 24 µM
[6]
  IC50: 14 µM
  IC90: 26 µM
[7]; Low oxygen
  IC50: 9.7 µM
  IC90: 33 µM
  MIC: 120 µM
[7]; Normal oxygen
  IC50: 9.9 µM
  IC90: 25 µM
  MIC: 71 µM
[8]
  activity against M. avium (in words): moderate activity
[8]; Mycobacterium avium
  MIC: 200 µM
[9]
  Papp B→A: 0.095 ×10⁻⁶ cm/s
  efflux ratio: 0.2
[10]
  IC50: > 20 µM
[11]
  IC50 at 72 h: > 100 µM
[12]
  IC50: > 20 µM
[13]; NADPH-dependent T1/2, Human
  half-life at 1 μM: 1.77 h
[13]; NADPH-free CLint
  microsomal CLint at 1 μM: < 12.8 µL/min/mg
[13]; NADPH-free T1/2, Human
  half-life at 1 μM: > 3 h
[14]
  IC50: 6.6 µM
[14]; IC50 CYP3A4 – midazolam, probe substrate midazolam, human liver microsomes
  IC50: > 20 µM
[15]
  activity against M. abscessus (in words): showed activity
[15]; Mycobacteroides abscessus
  IC50: 56 µM
  IC90: 68 µM
  MIC: 88 µM
[16]
  recovery: 24.5%
[16]; plasma
  fraction unbound: 0.078
[17]
  mechanism of action (bacteriostatic or bactericidal): bactericidal
[18]
  IC50: 0.92 µM
[19]
  IC50: > 20 µM

## c1cc(Cn2cnc3ccccc32)nc(Cn2cnc3ccccc32)c1 [Compound 5, 2,6-bis((1H-benzo[d]imidazol-1-yl)methyl)pyridine]
[2]
  IC50: > 50 µM
  IC90: > 50 µM
  MIC: > 50 µM
[3]
  IC50: > 50 µM
[20]
  solubility: > 200 µM
[5]
  IC50: 43 µM
  IC90: > 50 µM
  MIC: > 50 µM
[6]
  IC50: > 200 µM
  IC90: > 200 µM
[7]; Low oxygen
  IC50: > 50 µM
  IC90: > 50 µM
  MIC: > 50 µM
[7]; Normal oxygen
  IC50: > 50 µM
  IC90: > 50 µM
  MIC: > 50 µM
